Columns and labels:
Assay type in all cases: biochemical
[1] = target: T1, glycerol-3-phosphate cytochrome c reductase (G3PDH+CIII) (Botrytis cinerea, UniProt Q18ND9); test: GCCR activity, Botrytis cinerea mitochondria
T1 sequence (Q18ND9 1-391): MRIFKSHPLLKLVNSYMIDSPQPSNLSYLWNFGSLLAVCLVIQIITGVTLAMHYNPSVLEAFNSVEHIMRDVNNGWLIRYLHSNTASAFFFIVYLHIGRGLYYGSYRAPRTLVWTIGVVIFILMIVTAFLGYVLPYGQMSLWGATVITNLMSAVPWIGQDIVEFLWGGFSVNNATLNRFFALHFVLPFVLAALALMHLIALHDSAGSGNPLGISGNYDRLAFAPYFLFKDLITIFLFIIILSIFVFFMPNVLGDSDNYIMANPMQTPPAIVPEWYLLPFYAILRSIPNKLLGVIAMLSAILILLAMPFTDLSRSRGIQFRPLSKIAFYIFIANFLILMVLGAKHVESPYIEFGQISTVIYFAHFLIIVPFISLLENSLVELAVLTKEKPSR
Method: The mixed population of B. cinerea fungi used in this study was kindly provided by Dr. Joelle Dupont (Museum National d’Histoire Naturelle, Paris, France). Conidia from Botrytis cinerea were obtained from 15–30 d cultures grown on malt medium agar plates. Mycelial colonies were prepared by seeding conidia from 10 colonies in liquid medium (10 g of glucose, 2 g of KH2PO4, 0.5 g of MgSO47H2O, 1 g of (NH4)2SO4, 2 g of yeast extract and deionized water up to 1 l, pH 6.2). Incubation was performed at 23°C until hyphae totally covered the surface of the bottle. The hyphae (9-cm-diameter disks) were harvested, washed twice with refrigerated distilled water and finally with mitochondria extraction medium containing 20 mM Tris (pH 7.2), 0.25 M sucrose, 40 mM KCl, 2 mM EGTA, 1 mg/ml BSA, and no cysteine. The hyphae were suspended in 150 ml of extraction medium, cut in small pieces (1 cm^2) and then disrupted at high speed for 1×2 sec and at low speed for 2×3 sec using a MultiMoulinex mixer (Moulinex, France). The suspension of disrupted hyphae was then filtered through two layers of nylon cloth (clearance 150 μm). The cloth was washed with 50 ml of extraction medium. After low-speed centrifugation (700 g for 15 min), the mitochondria were collected at 10,000 g for 20 min. The pellet was suspended in 250 μl of extraction medium, aliquoted (± 30 μl) and kept frozen at -80°C.
(§1) RC enzyme activities were spectrophotometrically measured using a pseudo-double-wavelength spectrophotometer (Cary 60, Agilent). Malonate-sensitive succinate quinone dichlorophenolindophenol (DCPIP) reductase (SQDR), as an indicator of the activity of the isolated SDH enzyme (isolated CII), and glycerol-3-phosphate quinone DCPIP reductase (GQDR), as a measure of the activity of the isolated glycerol-3-phosphate dehydrogenase (G3PDH), were assayed as previously described. […] With this aim, we measured the malonate-sensitive succinate cytochrome c reductase (SDH+CIII), glycerol-3-phosphate cytochrome c reductase (G3PDH+CIII) and antimycin-sensitive quinol cytochrome c reductase (CIII) as previously described.
(§2) The effects of eight different SDHIs (up to 500 μM; S2 Fig) were determined on four different biological materials. Because IC50 are known to be affected by the actual absolute activity of the tested enzyme, these IC50 were quantified using similar levels of SDH enzyme activity during the assay. IC50 values were determined using the AAT Bioquest IC50 calculator tool (https://www.aatbio.com/tools/ic50-calculator).

[2] = target: T2, glycerol-3-phosphate cytochrome c reductase (G3PDH+CIII) (Lumbricus terrestris, UniProt Q34945); test: GCCR activity, earthworm homogenate
T2 sequence (Q34945 1-379): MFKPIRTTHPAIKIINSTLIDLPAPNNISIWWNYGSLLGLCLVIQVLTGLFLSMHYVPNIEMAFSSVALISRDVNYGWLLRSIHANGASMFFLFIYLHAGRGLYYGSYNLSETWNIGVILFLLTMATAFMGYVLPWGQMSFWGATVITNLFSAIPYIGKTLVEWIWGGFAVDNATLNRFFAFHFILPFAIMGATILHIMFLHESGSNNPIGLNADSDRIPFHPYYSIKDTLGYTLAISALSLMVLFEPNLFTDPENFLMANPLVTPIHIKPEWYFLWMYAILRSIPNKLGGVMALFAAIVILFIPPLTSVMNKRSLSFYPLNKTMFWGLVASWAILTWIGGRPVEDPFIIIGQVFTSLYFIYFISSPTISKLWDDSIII
Method: L. terrestris individuals (n = 5) were collected manually in a household compost in Epernon (France 28230) and identified by the person (Paule Bénit) in charge of this compost. Before use, the worms were washed 5 times with 1× phosphate-buffered saline. A fresh homogenate was prepared from the segments located between the prostomium and clitellum of the 5 individuals. Tissues were placed in 500 μl of an ice-cold medium consisting of 20 mM Tris (pH 7.2), 0.25 M sucrose, 40 mM KCl, 2 mM EGTA, and 1 mg/ml BSA and homogenized using a 1-ml glass-glass Potter-Elvehjem homogenizer. Low-speed centrifugation at 1,500 g for 5 min allowed heavy debris to be discarded. The supernatant was distributed as 50-μl aliquots and kept frozen at -80°C.
as §1, §2

[3] = target: T3, succinate cytochrome c reductase (SDH+CIII) (Apis mellifera, UniProt A0A8U0WTA3+A0A8U0YBJ8+A0A8U1DE73); test: SCCR activity, honeybee crude mitochondria
T3 sequence (A0A8U1DE73 27-278): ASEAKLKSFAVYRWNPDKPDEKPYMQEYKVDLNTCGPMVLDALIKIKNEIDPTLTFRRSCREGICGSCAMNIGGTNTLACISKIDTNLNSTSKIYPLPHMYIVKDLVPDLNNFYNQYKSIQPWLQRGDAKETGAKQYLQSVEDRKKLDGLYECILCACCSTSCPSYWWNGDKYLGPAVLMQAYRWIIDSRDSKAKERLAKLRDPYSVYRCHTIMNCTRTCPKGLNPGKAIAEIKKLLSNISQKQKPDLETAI
T3 sequence (A0A8U0YBJ8 36-174): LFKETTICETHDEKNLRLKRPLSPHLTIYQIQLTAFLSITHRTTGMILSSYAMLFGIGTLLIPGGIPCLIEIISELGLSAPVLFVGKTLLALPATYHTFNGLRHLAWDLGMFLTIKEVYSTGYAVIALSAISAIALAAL
T3 sequence (A0A8U0WTA3 79-201): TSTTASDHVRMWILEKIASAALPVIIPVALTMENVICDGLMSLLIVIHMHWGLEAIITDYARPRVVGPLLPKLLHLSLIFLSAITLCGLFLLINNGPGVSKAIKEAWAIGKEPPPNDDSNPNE
Method: A. mellifera individuals (n = 5) were a kind gift from Jacques Kemp (beekeeper; Saint-Rémy-lès-Chevreuse, Yvelines, France). Whole bodies of individuals frozen in dry ice, except heads, were homogenized using a 1 ml glass-glass Potter-Elvehjem homogenizer in an ice-cold medium consisting of 20 mM Tris (pH 7.2), 0.25 M sucrose, 40 mM KCl, 2 mM EGTA, and 1 mg/ml BSA. The homogenate was centrifuged at 1,500 g for 5 min. The mitochondria contained in the supernatant were spun down at 10,000 g for 10 min. The pellet of crude mitochondria was distributed as 20-μl aliquots and kept frozen at -80°C.
as §1, §2

Structure (SMILES) | IC50 [1] [µM] | IC50 [2] [µM] | IC50 [3] [µM]
Cn1cc(C(=O)Nc2ccc(F)cc2-c2ccc(Cl)c(Cl)c2)c(C(F)F)n1 [Bixafen, bixafen] | 22.5 | 450 | 3.3
Cn1cc(C(=O)Nc2ccccc2-c2cc(F)c(F)c(F)c2)c(C(F)F)n1 [Fluxapyroxad, fluxapyroxad] | 60 | > 500 | 11.7
Cc1nn(C)c(F)c1C(=O)Nc1ccccc1C(C)CC(C)C (stereo not drawn) [Penflufen, penflufen] | 80 | > 500 | 7.5
CC(C)C1C2CCC1c1c(NC(=O)c3cn(C)nc3C(F)F)cccc12 (stereo not drawn) [Isopyrazam, isopyrazam] | 27.9 | 83 | 5.1

— publication PMC6837341, “Evolutionarily conserved susceptibility of the mitochondrial respiratory chain to SDHI pesticides and its consequence on the impact of SDHIs on human cultured cells” (PLoS ONE, 2019)
